The target of assay [1] is T1, PIK3CA (Homo sapiens, UniProt P42336).
T1 construct: endogenous in cells; host or cells: Jurkat cell lysate
Description: In vitro ELISA target engagement assay for PIK3CA in Jurkat cellular lysate (competition with PIK3CA Biotin Probe). The note with it: 1 hour at rt, then 500 nM PIK3CA Biotin Probe, read-out: Elisa Target Engagement Assay (TE50). Type of assay: binding. The gist of the method:
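Jurkat lysate from sonicated frozen cells was preincubated 1 h at rt with serially diluted compound up to 200 μM, then labelled 1 h at rt with PIK3CA biotin probe at 500 nM final. Probe-bound PIK3CA was captured on antibody-coated plates and detected with Neutravidin-HRP luminescence; TE50 derived from the dose response.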
Background: In an ELISA, binding on a coated surface is turned into a signal by an enzyme label.

Assay [2] has as its target T2, PIK3CA_C242 (Homo sapiens, UniProt P42336).
T2 construct: endogenous in cells; host or cells: Jurkat cell lysate
As to the kind of experiment: Proteomic TE50 (IA-DTB / TMT mass spectrometry) in Jurkat cell lysate. The class given is binding. Conditions: 1 hour at rt, 7-point dose response. The gist of the method:
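Jurkat lysate (500 μg) treated with compound (7-point, 1:5 dilutions) for 1 h at rt, then labelled with 200 μM IA-DTB for 1 h. After digestion and streptavidin enrichment, the C242 peptide was quantified by targeted MS3 TMT. TE50 was derived from reporter-ion S/N dose-response curves.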

Assay [3] concerns pAKT(S473) in FaDu cell line. Description: In vitro Phospho-AKT(S473) HTRF analysis in FaDu cells. Type of assay: cell-based. The note with it: Homo sapiens, 0.5 h; for IC50: FaDu cells, 30 minutes at 37° C.; for Emax: FaDu, read-out: FaDu pAKT Imax % control. In outline:
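FaDu or H358 cells were plated overnight in medium with 1% FBS, then exposed to a compound dose response for 30 minutes at 37° C. Phospho-AKT(S473) levels were measured by HTRF.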

T2 sequence (P42336 whole entry): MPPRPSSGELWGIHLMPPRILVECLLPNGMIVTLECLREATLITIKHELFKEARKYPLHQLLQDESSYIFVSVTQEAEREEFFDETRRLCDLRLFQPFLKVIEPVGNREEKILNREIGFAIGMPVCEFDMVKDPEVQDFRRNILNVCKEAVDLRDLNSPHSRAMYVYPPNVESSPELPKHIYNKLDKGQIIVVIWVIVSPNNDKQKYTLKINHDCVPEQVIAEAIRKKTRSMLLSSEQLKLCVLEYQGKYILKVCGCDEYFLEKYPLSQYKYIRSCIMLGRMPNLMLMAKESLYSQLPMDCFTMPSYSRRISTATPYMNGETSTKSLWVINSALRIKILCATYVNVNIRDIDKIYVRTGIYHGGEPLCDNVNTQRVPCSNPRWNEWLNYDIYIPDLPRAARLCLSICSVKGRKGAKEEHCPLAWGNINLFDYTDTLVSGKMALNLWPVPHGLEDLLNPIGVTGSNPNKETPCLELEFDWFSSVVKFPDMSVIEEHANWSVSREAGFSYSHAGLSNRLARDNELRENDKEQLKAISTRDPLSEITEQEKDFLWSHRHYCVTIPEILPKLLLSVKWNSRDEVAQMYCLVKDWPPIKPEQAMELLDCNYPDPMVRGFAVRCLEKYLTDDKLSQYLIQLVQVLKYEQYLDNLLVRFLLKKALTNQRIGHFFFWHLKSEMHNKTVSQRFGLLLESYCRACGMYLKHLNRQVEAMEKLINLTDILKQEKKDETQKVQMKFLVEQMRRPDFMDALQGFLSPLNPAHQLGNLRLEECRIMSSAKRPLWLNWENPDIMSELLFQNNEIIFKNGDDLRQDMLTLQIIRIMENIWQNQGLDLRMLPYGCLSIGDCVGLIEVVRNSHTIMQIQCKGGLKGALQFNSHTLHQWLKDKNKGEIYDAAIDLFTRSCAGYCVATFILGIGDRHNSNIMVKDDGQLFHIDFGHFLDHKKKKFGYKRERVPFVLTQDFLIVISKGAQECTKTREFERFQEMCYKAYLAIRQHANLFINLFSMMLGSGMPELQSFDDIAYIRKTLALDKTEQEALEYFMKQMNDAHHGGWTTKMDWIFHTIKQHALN
T2 sequence (P27986 whole entry partner): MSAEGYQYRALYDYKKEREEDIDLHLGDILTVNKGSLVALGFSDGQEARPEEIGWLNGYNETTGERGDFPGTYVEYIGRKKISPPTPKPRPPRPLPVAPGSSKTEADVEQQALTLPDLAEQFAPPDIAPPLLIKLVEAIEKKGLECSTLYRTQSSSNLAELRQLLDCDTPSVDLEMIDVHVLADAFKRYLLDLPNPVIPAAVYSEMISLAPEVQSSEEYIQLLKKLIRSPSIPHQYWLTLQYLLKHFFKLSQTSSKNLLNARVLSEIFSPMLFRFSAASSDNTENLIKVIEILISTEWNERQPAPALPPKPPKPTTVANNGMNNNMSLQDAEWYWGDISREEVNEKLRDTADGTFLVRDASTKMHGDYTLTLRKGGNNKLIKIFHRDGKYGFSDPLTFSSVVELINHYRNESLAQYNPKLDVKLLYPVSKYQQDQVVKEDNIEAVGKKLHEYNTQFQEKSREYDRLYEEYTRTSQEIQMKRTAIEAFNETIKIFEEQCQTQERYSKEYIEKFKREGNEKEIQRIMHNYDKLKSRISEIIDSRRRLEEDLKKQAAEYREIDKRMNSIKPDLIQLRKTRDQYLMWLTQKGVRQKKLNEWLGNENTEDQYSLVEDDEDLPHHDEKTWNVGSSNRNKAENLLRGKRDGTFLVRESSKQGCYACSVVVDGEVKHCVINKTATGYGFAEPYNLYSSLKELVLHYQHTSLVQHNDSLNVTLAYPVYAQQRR
T1 sequence (P42336 whole entry): as the sequence (P42336 whole entry) above
T1 sequence (P27986 whole entry partner): as the sequence (P27986 whole entry partner) above

For the compound `COc1ccc(S(=O)(=O)N2CC[C@@](F)(C(=O)N[C@H](C)/C=C\S(C)(=O)=O)C[C@H]2C)c(-c2ccccc2Cl)c1` [Compound 141, (2R,4S)-1-[2-(2-chlorophenyl)-4-methoxy-phenyl]sulfonyl-4-fluoro-2-methyl-N—[(Z,1R)-1-methyl-3-methylsulfonyl-allyl]piperidine-4-carboxamide], the results for the IC50 in assay [1], in assay [2] and in assay [3] were 75 nM, 50 nM and 82.4 nM, respectively. For the same compound, in assay [3], the Emax worked out at 102%.
In the case of `C[C@H](/C=C\S(C)(=O)=O)NC(=O)C1(F)CCN(S(=O)(=O)c2ccc(C(F)(F)F)cc2-c2ccccc2Cl)CC1` [Compound 33, (R,Z)-1-((2′-chloro-5-(trifluoromethyl)-[1,1′-biphenyl]-2-yl)sulfonyl)-4-fluoro-N-(4-(methylsulfonyl)but-3-en-2-yl)piperidine-4-carboxamide], the IC50 in assay [1] was 158 nM; in assay [2], 133 nM; in assay [3], 409 nM. Further, the Emax in assay [3] was 86.2%.
The matching figures for `C[C@H](/C=C/C(=O)N1CC(F)(F)C1)NC(=O)C1(F)CCN(S(=O)(=O)c2ccc(C(F)(F)F)cc2-c2ccccc2Cl)CC1` [Compound 134, 1-[2-(2-chlorophenyl)-4-(trifluoromethyl)phenyl]sulfonyl-4-fluoro-N—[(E,1R)-4-(3,3-difluoroazetidin-1-yl)-1-methyl-4-oxo-but-2-enyl]piperidine-4-carboxamide]: 177 nM, 150 nM, 348 nM and 96.3%.
Regarding `COc1ccc(S(=O)(=O)N2CC[C@@](F)(C(=O)N[C@H](C)/C=C/C(=O)N3CC(F)(F)C3)C[C@H]2C)c(-c2ccccc2Cl)c1` [Compound 151, (2R,4S)-1-((2′-chloro-5-methoxy-[1,1′-biphenyl]-2-yl)sulfonyl)-N-((R,E)-5-(3,3-difluoroazetidin-1-yl)-5-oxopent-3-en-2-yl)-4-fluoro-2-methylpiperidine-4-carboxamide], the IC50 in assay [1] was 226 nM; in assay [2], 200 nM; in assay [3], 284 nM. For the same compound, the Emax in assay [3] was 100%.
Turning to `C[C@H](/C=C\S(C)(=O)=O)NC(=O)C1(F)CCN(S(=O)(=O)c2cnc(C(F)(F)F)cc2-c2ccccc2Cl)CC1` [Compound 207, (R,Z)-1-((4-(2-chlorophenyl)-6-(trifluoromethyl)pyridin-3-yl)sulfonyl)-4-fluoro-N-(4-(methylsulfonyl)but-3-en-2-yl)piperidine-4-carboxamide], the IC50 in assay [1] was 184 nM; in assay [2], 150 nM; in assay [3] it was 803 nM. In assay [3], the Emax came out at 75.2%.
Regarding `C[C@H](/C=C\S(C)(=O)=O)NC(=O)[C@]1(F)CCN(S(=O)(=O)c2ccc(Br)cc2-c2cccc(Cl)c2)[C@H](C)C1` [Compound 145, (2R,4S)-1-((5-bromo-3′-chloro-[1,1′-biphenyl]-2-yl)sulfonyl)-4-fluoro-2-methyl-N-((R,Z)-4-(methylsulfonyl)but-3-en-2-yl)piperidine-4-carboxamide], in assay [1], the IC50 is 270 nM. Besides, in assay [3], the IC50 was determined as 131 nM and the Emax came out at 102%.
On to `O=C([C@H]1CN(CC(F)(F)F)C[C@H]1c1ccccc1Cl)N1CCC(F)(C(=O)N[C@@H]2C=CS(=O)(=O)C2)CC1` [Compound 164, 1-((3R,4R)-4-(2-chlorophenyl)-1-(2,2,2-trifluoroethyl)pyrrolidine-3-carbonyl)-N—((R)-1,1-dioxido-2,3-dihydrothiophen-3-yl)-4-fluoropiperidine-4-carboxamide], for which the IC50 in assay [1] was 370 nM. In assay [3], the IC50 was determined as 834 nM and the Emax is 103%.
As to `Cc1cccc([C@@H]2CN(CC(F)(F)F)C[C@@H]2C(=O)N2CCC[C@](F)(C(=O)N[C@H](C)/C=C\S(C)(=O)=O)CC2)c1Cl` (single isomer, unassigned) [Compound 172, (R)-1-((3*R,4*R)-4-(2-chloro-3-methylphenyl)-1-(2,2,2-trifluoroethyl)pyrrolidine-3-carbonyl)-4-fluoro-N-((R,Z)-4-(methylsulfonyl)but-3-en-2-yl)azepane-4-carboxamide], the IC50 in assay [1] is 580 nM. In addition, in assay [3], the IC50 was 505 nM and the Emax was 97.9%.
As for `COC[C@@H](/C=C\S(C)(=O)=O)NC(=O)C1(F)CCN(S(=O)(=O)c2ccc(Br)cc2-c2ccccc2Cl)CC1` [Compound 246, (R,Z)-1-((5-bromo-2′-chloro-[1,1′-biphenyl]-2-yl)sulfonyl)-4-fluoro-N-(1-methoxy-4-(methylsulfonyl)but-3-en-2-yl)piperidine-4-carboxamide], the IC50 in assay [1] stood at 42 nM; in assay [3] it was 163 nM.
For the compound `COc1cc(-c2ccccc2Cl)c(S(=O)(=O)N2CCC(F)(C(=O)N[C@@H](C)/C=C\S(C)(=O)=O)CC2)cn1` [Compound 187, (S,Z)-1-((4-(2-chlorophenyl)-6-methoxypyridin-3-yl)sulfonyl)-4-fluoro-N-(4-(methylsulfonyl)but-3-en-2-yl)piperidine-4-carboxamide], the IC50 in assay [2] was determined as 68.1 nM. In assay [3], the IC50 was determined as 152 nM and the Emax came to 70.1%.
Regarding `COc1ccc(C(=O)N2CCC[C@](F)(C(=O)N[C@@H]3C=CS(=O)(=O)C3)CC2)c(-c2ccccc2Cl)c1` [Compound 294, (R)-1-(2′-chloro-5-methoxy-[1,1′-biphenyl]-2-carbonyl)-N-((R)-1,1-dioxido-2,3-dihydrothiophen-3-yl)-4-fluoroazepane-4-carboxamide], the IC50 came out at 120 nM in assay [1] and 2120 nM in assay [3].
In the case of `C[C@H](/C=C/C(=O)N1CC(F)(F)C1)NC(=O)[C@@]1(F)CCCN(C(=O)c2ccc(C(F)(F)F)cc2-c2ccccc2Cl)CC1` [Compound 244, (R)-1-(2′-chloro-5-(trifluoromethyl)-[1,1′-biphenyl]-2-carbonyl)-N-((R,E)-5-(3,3-difluoroazetidin-1-yl)-5-oxopent-3-en-2-yl)-4-fluoroazepane-4-carboxamide], in assay [1], the IC50 turned out to be 780 nM. In assay [3], the IC50 stood at 1200 nM and the Emax stood at 76.3%.
With `C[C@H](/C=C\S(C)(=O)=O)NC(=O)[C@@]1(F)CCCN(C(=O)[C@@]2(C)CN(CC(F)(F)F)C[C@H]2c2ccccc2Cl)CC1` [Compound 254, (R)-1-((3R,4R)-4-(2-chlorophenyl)-3-methyl-1-(2,2,2-trifluoroethyl)pyrrolidine-3-carbonyl)-4-fluoro-N-((R,Z)-4-(methylsulfonyl)but-3-en-2-yl)azepane-4-carboxamide], the IC50 in assay [1] amounted to 880 nM. Further, in assay [3], the IC50 was found to be 911 nM and the Emax was determined as 92.5%.
For `C[C@H](/C=C\S(C)(=O)=O)NC(=O)[C@@]1(F)CCCN(C(=O)[C@H]2CN(CC(F)(F)F)C[C@H]2c2ccc(F)cc2Cl)CC1` (single isomer, unassigned) [Compound 167, (R)-1-((3*R,4*R)-4-(2-chloro-4-fluorophenyl)-1-(2,2,2-trifluoroethyl)pyrrolidine-3-carbonyl)-4-fluoro-N-((R,Z)-4-(methylsulfonyl)but-3-en-2-yl)azepane-4-carboxamide], in that order: 580 nM, 518 nM and 93.6%.

Values taken from patent publication US20250026721A1, “COMPOUNDS AND METHODS FOR MODULATING RAS-PI3K” (Vividion Therapeutics, Inc., priority 2023, published 2025).
